Results from patent US10426757B2, “Compositions and methods for promoting intestinal stem cell and/or non-stem progenitor cell function” (Whitehead Institute for Biomedical Research, priority 2014, dated 2019).

Test system: Apc-null Lgr5-GFP^hi ISCs and Lgr5-GFP^low progenitors
Experiment: Orthotopic transplantation of Apc-null cells into recipient colons
Format: in vivo, mouse
Conditions: 10,000 cells from GW501516-treated mice; for adenoma initiation by transplanted Apc-null Lgr5-GFP^low progenitors: vehicle 0±0
Description: To test this possibility, the present inventors generated Apc^loxp/loxp; Lgr5-EGFP-IRES-CreERT2 mice to assess whether pharmacological PPAR-δ activation modifies the tumorigenic capacity of the Lgr5-GFP^low progenitors. Injection with tamoxifen leads to Apc-loss in the Lgr5-GFP^hi ISCs, which in turn generate Apc-null Lgr5-GFP^low progenitors. Four days after tamoxifen administration, we flow sorted Apc-null Lgr5-GFP^hi ISCs and Lgr5-GFP^low progenitors from vehicle and PPAR-δ agonist treated mice to assess the tumor-forming potential of these populations using separate assays (FIG. 7B): first, we examined their ability to give rise to adenomatous organoids in culture; and second, we interrogated the ability of 10,000 freshly sorted stem and progenitor cells to initiate adenomatous lesions in syngeneic recipient colons.
Apc^loxp/loxp; Lgr5-EGFP-IRES-CreERT2 mice were treated with vehicle or GW501516 for one month, and then injected with two doses of tamoxifen I.P. Four days later, Apc-null Lgr5-GFP^hi ISCs and Lgr5-GFP^low progenitors were sorted by flow cytometry, as described above. For primary cell transplantations, 10,000 Apc-null Lgr5-GFP^hi ISCs and Lgr5-GFP^low progenitors were resuspended into 90% crypt culture media (as described) and 10% Matrigel™, then transplanted into the colonic lamina propria of C57BL/6 recipient mice by optical colonoscopy using an injection needle (Hamilton Inc., part number 7750-21, 30 gauge, Kel-F Hub NDL, 14 inches length, 45 degree bevel) and specialized syringe (Hamilton Inc, part number 81242, 500 μL, Model 1750 LT Threaded Plunger). Optical colonoscopy was performed using a Karl Storz Image 1 HD Camera System, Image 1 HUB CCU, 175 Watt Xenon Light Source, and Richard Wolf 1.9 mm/9.5 Fr Integrated Telescope (part number 8626.431). Four injections were performed per mouse. Mice then underwent colonoscopy four weeks later to assess tumor formation. Colonoscopy videos and images were saved for offline analysis. […]

adenoma initiation by transplanted Apc-null Lgr5-GFP^low progenitors: initiated tumors
adenoma initiation by transplanted Apc-null Lgr5-GFP^low progenitors (listed as PPAR-δ agonist): 0.58±0.16
intestinal adenoma formation by transplanted Apc-null Lgr5-GFP^hi ISCs (vehicle 0.67±0.13, listed as PPAR-δ agonist): 0.61±0.19
SMILES: Cc1cc(SCc2sc(-c3ccc(C(F)(F)F)cc3)nc2C)ccc1OCC(=O)O [GW501516, 2-[2-methyl-4-[[4-methyl-2-[4-(trifluoromethyl)phenyl]-1,3-thiazol-5-yl]methylsulfanyl]phenoxy]acetic acid]
